Experimental findings from patent US20240344026A1, “Methods to Activate Gamma Delta T cells for Antibody Dependent Cellular Cytotoxicity” (Intellistem, Inc., priority 2023, published 2024) are described below.

What all share (format): cell-based
The test system of test [1] is Gamma Delta T cells. Kind of test: Proliferation rate of Gamma Delta T cells on ex vivo stimulation of MNC. As to conditions: changed stimulant vs standard protocol; zoledronate pulse 100 μM 4 h (day 7); IL-15 10 ng/ml, IL-2 1000 U/ml. The protocol: Cell cultures were performed with peripheral blood obtained from healthy adult donors. Peripheral blood mononuclear cells (MNC) were isolated by density gradient centrifugation with Biocoll (Biochrom, Darmstand, Germany/Bio&SELL, Feucht, Germany). MNC were incubated up to 17 days at 37° C. and 5% CO2.
For cultivation, MNC at a concentration of 5.0E+05/ml were cultured in 50 ml cell culture flasks (Sarstedt, Nuembrecht, Germany) using medium consisting of OpTmizer™ CTSTM T-Cell Expansion Basal Medium, OpTmizer™ CTSTM T-Cell Expansion Supplement (Gibco/Thermo Fisher, Waltham, USA) and 1% 200 mM L-Glutamin. 10 μM Zoledronate were added on day 0 and 1000 U/ml IL-2 were added on day 2. On days 4, 7, 9, 11 and 14 half of the medium was removed and replaced by fresh medium containing 2× 1000 U/ml IL-2 for a final concentration of 1000 U/ml. Cells were not split at any time. From day 4 on cell culture flasks were shaken at 250 rpm. For pulsing zoledronate, 100 μM Zol were added on day 0. […]
Cell counts and cell viability were established using a hemocytometer and the trypan blue exclusion method. Cell count and proliferation rate of Gamma Delta T cells was calculated on the basis of the cell number of the MNC and the percentage of Gamma Delta T cells on the MNC determined by flow cytometry. […]

Test [2] deals with cytoplasmic perforin of Gamma Delta T cells. Kind of test: Cytoplasmic perforin staining, flow cytometry. The protocol:
To evaluate the activity of stimulated Gamma Delta T cells, cytoplasmic perforin and IFN γ were stained every three to four days and Δ MFI was measured by flow cytometry.
For orientation: Flow cytometry measures light scatter and fluorescence of single cells or particles in a stream.

Another test has as its system tumor cell line Daudi. Description: Cytotoxicity assay. From the text:
To directly determine the anti-tumor activity of Gamma Delta T cells against the tumor cell line Daudi, the present inventors performed a cytotoxicity assay on day 10 of cultivation comparing the prior art (R10F) and preferred embodiment of the present invention (Ko-Op). For this, Alpha Beta T cells and NKp46+ cells were paramagnetically depleted from the cell suspension in order to isolate the Gamma Delta T cells on day 10. The cell composition before and after depletion is shown FIG. 2A.
The present inventors next performed the cytotoxicity assay with the different cultivated MNC. To be able to compare the methods more clearly, the present inventors calculated the lytic units per 10^6 effector cells.

The test system of test [3] is Gamma Delta T cells. Description: Differentiation of Gamma Delta T cells by CD45RA and CD27 expression. An excerpt:
The present inventors divided the T cells into naive, central memory, effector memory and terminally differentiated Gamma Delta T cells based on expression of CD45RA and CD27.

The mark [4] stands for this setting: changed stimulant vs standard protocol, without combination of modifications.
[5] abbreviates: changed stimulant vs standard protocol.
Setting [6] is: IL-15 instead of IL-2, combined with pulsing zoledronate.

On to `O=P(O)(O)C(O)(Cn1ccnc1)P(=O)(O)O` [zoledronate, reference compound], for which the “proliferation rate of Gamma Delta T cells” value with Gamma Delta T cells [1] was “significant lower proliferation rate”. For the same compound, the cytoplasmic perforin result in test [2] (setting [4]) was “did not lead to any significant change”. Besides, the “lytic units per 10^6 effector cells” value in the test with tumor cell line Daudi (without therapeutic antibodies, vs standard protocol) is listed as “significant increase”. In addition, the “percentage of central memory Gamma Delta T cells (TCM)” value in the test on Gamma Delta T cells [3] (setting [5]) was “more TCM”.

Consider “IL-15: interleukin used at 10 ng/ml in place of IL-2”, for which the “proliferation rate of Gamma Delta T cells” value in the test on Gamma Delta T cells [1] is recorded as “significantly lower”. For the same compound, the cytoplasmic perforin result in test [2] (IL-15 instead of IL-2, with zoledronate pulse) is recorded as “significant reduction”; in test [2] (setting [4]), “significant reduction”. Besides, in the test on tumor cell line Daudi (with zoledronate pulse, without antibody, vs zoledronate pulse without modification of the interleukins), the “lytic units per 10^6 effector cells” value is recorded as “an increase”. Also, the “percentage of effector Gamma Delta T cells (TEM)” value in the test on Gamma Delta T cells [3] (IL-15 instead of IL-2) and with Gamma Delta T cells [3] (setting [6]) was “reduced percentage” in each case. For the same compound, the “percentage of central memory Gamma Delta T cells (TCM)” value in the test with Gamma Delta T cells [3] (setting [6]) and in the test on Gamma Delta T cells [3] (setting [5]) was “elevated percentage” throughout.
